Data on 16 molecules can be found in patent US12091425B2 (AMGEN INC., priority 2016, dated 2024).

Assay [1] concerns the target T1, Mcl-1/Bim interaction, recombinant human Mcl-1 (171-327) (Homo sapiens, UniProt Q07820).
T1 construct: made in house
In words: Cell free Mcl-1: Bim Affinity Assay (Mcl-1 HTRF). It counts as binding. Particulars: TR-FRET, 0.1 nM Mcl-1 (171-327), 0.05 nM biotin-Bim (51-76). Put shortly:
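TR-FRET competition assay with biotinylated human Bim peptide (residues 51-76); reaction plates incubated overnight before reading. IC50 values came from duplicate data fitted to a four-parameter sigmoidal competition curve.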
Background: Time-resolved FRET reads energy transfer from a long-lived donor to a nearby acceptor.

Assay [2] has as its system OPM-2 human multiple myeloma cell line. In words: Cell Viability Assay (OPM-2 10 FBS). It counts as cell-based. Conditions: Homo sapiens, OPM-2, 16 h, OPM-2 cells, 16 h, CellTiter-Glo. The method in brief: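 IC50 from 4-parameter logistic fit of CellTiter-Glo luminescence. 3000 cells/well, 10% FBS medium, serial compound dilutions, 16 h, 37 °C/5% CO2; read 25 min post-reagent.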
In general terms: Cellular ATP, detected with luciferase, serves as a proxy for viable cell number.

For orientation: IC50 means the concentration that inhibits the measured activity by half.

T1 sequence (Q07820 171-327): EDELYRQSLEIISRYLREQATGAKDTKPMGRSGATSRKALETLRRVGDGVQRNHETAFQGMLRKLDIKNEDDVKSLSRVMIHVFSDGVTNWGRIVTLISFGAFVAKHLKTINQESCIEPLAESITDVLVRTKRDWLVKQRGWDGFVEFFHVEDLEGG

Regarding `CCN(CC)S(=O)(=O)CCN1CC/C=C/[C@H](O)[C@@H]2CC[C@H]2CN2C[C@@]3(CCCc4cc(Cl)ccc43)COc3ccc(cc32)C(=O)NS1(=O)=O` [Example 35, 2-((1S,3′R,6′R,7′S,8′E)-6-chloro-7′-hydroxy-13′,13′-dioxido-15′-oxo-3,4-dihydro-2H,12′H-spiro[naphthalene-1,22′-[20]oxa[13]thia[1,12,14]triazatetracyclo[14.7.2.0^3,6.0^19,24]pentacosa[8,16,18,24]tetraen]-12′-yl)-N,N-diethylethanesulfonamide], the IC50 in assay [1] came to 1.55 nM; in assay [2] it was 1280 nM.

`O=C1NS(=O)(=O)NCC/C=C\[C@H](O)[C@@H]2CC[C@H]2CN2C[C@@]3(CCCc4cc(Cl)ccc43)COc3ccc1cc32` [Example 36, (1S,3′R,6′R,7′S,8′Z)-6-chloro-7′-hydroxy-3,4-dihydro-2H,15′H-spiro[naphthalene-1,22′-[20]oxa[13]thia[1,12,14]triazatetracyclo[14.7.2.0^3,6.0^19,24]pentacosa[8,16,18,24]tetraen]-15′-one 13′,13′-dioxide]: the IC50 turned out to be 0.535 nM in assay [1] and 2590 nM in assay [2].

Turning to `CS(=O)(=O)CCN1CC/C=C\[C@H](O)[C@@H]2CC[C@H]2CN2C[C@@]3(CCCc4cc(Cl)ccc43)COc3ccc(cc32)C(=O)NS1(=O)=O` [Example 37, (1S,3′R,6′R,7′S,8′Z)-6-chloro-7′-hydroxy-12′-(2-(methylsulfonyl)ethyl)-3,4-dihydro-2H,15′H-spiro[naphthalene-1,22′-[20]oxa[13]thia[1,12,14]triazatetracyclo[14.7.2.0^3,6.0^19,24]pentacosa[8,16,18,24]tetraen]-15′-one 13′,13′-dioxide], the 50% inhibitory concentration (IC50) in assay [1] amounted to 0.614 nM; in assay [2] it was 2570 nM.

Turning to `O=C1NS(=O)(=O)N(CC2COC2)CC/C=C/[C@H](O)[C@@H]2CC[C@H]2CN2C[C@@]3(CCCc4cc(Cl)ccc43)COc3ccc1cc32` [Example 40, (1S,3′R,6′R,7′S,8′E)-6-chloro-7′-hydroxy-12′-(3-oxetanylmethyl)-3,4-dihydro-2H,15′H-spiro[naphthalene-1,22′-[20]oxa[13]thia[1,12,14]triazatetracyclo[14.7.2.0^3,6.0^19,24]pentacosa[8,16,18,24]tetraen]-15′-one 13′,13′-dioxide], the IC50 amounted to 0.462 nM in assay [1] and 971 nM in assay [2].

Turning to `C=CCN1CC/C=C/[C@H](O)[C@@H]2CC[C@H]2CN2C[C@@]3(CCCc4cc(Cl)ccc43)COc3ccc(cc32)C(=O)NS1(=O)=O` [Example 42, (1S,3′R,6′R,7′S,8′E)-6-chloro-7′-hydroxy-12′-(2-propen-1-yl)-3,4-dihydro-2H,15′H-spiro[naphthalene-1,22′-[20]oxa[13]thia[1,12,14]triazatetracyclo[14.7.2.0^3,6.0^19,24]pentacosa[8,16,18,24]tetraen]-15′-one 13′,13′-dioxide], the figures for the half-inhibitory concentration (IC50) in assay [1] and in assay [2] were 0.57 nM and 842 nM, respectively.

For the molecule `CCN1CC/C=C/[C@H](OCC(=O)OC)[C@@H]2CC[C@H]2CN2C[C@@]3(CCCc4cc(Cl)ccc43)COc3ccc(cc32)C(=O)NS1(=O)=O` [Example 43, methyl(((1S,3′R,6′R,7′S,8′E)-6-chloro-12′-ethyl-13′,13′-dioxido-15′-oxo-3,4-dihydro-2H-spiro[naphthalene-1,22′-[20]oxa[13]thia[1,12,14]triazatetracyclo[14.7.2.0^3,6.0^19,24]pentacosa[8,16,18,24]tetraen]-7′-yl)oxy)acetate], the figures for the IC50 in assay [1] and in assay [2] were 0.995 nM and 536 nM, respectively.

For the molecule `COCCO[C@H]1/C=C/CCN(CCOC)S(=O)(=O)NC(=O)c2ccc3c(c2)N(C[C@@H]2CC[C@H]21)C[C@@]1(CCCc2cc(Cl)ccc21)CO3` [Example 48, (1S,3′R,6′R,7′S,8′E)-6-chloro-7′-(2-methoxyethoxy)-12′-(2-methoxyethyl)-3,4-dihydro-2H,15′H-spiro[naphthalene-1,22′-[20]oxa[13]thia[1,12,14]triazatetracyclo[14.7.2.0^3,6.0^19,24]pentacosa[8,16,18,24]tetraen]-15′-one 13′,13′-dioxide], the concentration for half-maximal inhibition (IC50) in assay [1] was found to be 0.562 nM; in assay [2], 524 nM.

For `C[C@@H]1C/C=C/[C@H](O)[C@@H]2CC[C@H]2CN2C[C@@]3(CCCc4cc(Cl)ccc43)COc3ccc(cc32)C(=O)NS(=O)(=O)N1C[C@H]1CCCO1` [Example 55, (1S,3′R,6′R,7′S,8′E,11R)-6-chloro-7′-hydroxy-11′-methyl-12′-((2R)-tetrahydro-2-furanylmethyl)-3,4-dihydro-2H,15′H-spiro[naphthalene-1,22′-[20]oxa[13]thia[1,12,14]triazatetracyclo[14.7.2.0^3,6.0^19,24]pentacosa[8,16,18,24]tetraen]-15′-one 13′,13′-dioxide], the IC50 in assay [1] was 6.25 nM; in assay [2], 2380 nM.

Turning to `CCN1[C@H](C)C/C=C/[C@H](O)[C@@H]2CC[C@H]2CN2C[C@@]3(CCCc4cc(Cl)ccc43)COc3ccc(cc32)C(=O)NS1(=O)=O` [Example 59, (1S,3′R,6′R,7′S,8′E,11R)-6-chloro-12′-ethyl-7′-hydroxy-11′-methyl-3,4-dihydro-2H,15′H-spiro[naphthalene-1,22′-[20]oxa[13]thia[1,12,14]triazatetracyclo[14.7.2.0^3,6.0^19,24]pentacosa[8,16,18,24]tetraen]-15′-one 13′,13′-dioxide], the IC50 in assay [1] was found to be 4.27 nM; in assay [2], 7450 nM.

Regarding `C[C@H]1C/C=C/[C@H](O)[C@@H]2CC[C@H]2CN2C[C@@]3(CCCc4cc(Cl)ccc43)COc3ccc(cc32)C(=O)NS(=O)(=O)N1CCN1CCOCC1` [Example 66, (1S,3′R,6′R,7′S,8′E,11′S)-6-chloro-7′-hydroxy-11′-methyl-12′-(2-(4-morpholinyl)ethyl)-3,4-dihydro-2H,15′H-spiro[naphthalene-1,22′-[20]oxa[13]thia[1,12,14]triazatetracyclo[14.7.2.0^3,6.0^19,24]pentacosa[8,16,18,24]tetraen]-15′-one 13′,13′-dioxide], the concentration for half-maximal inhibition (IC50) in assay [1] was determined as 2.31 nM; in assay [2], 492 nM.

Regarding `C[C@H]1C/C=C/[C@H](OCCN2CCOCC2)[C@@H]2CC[C@H]2CN2C[C@@]3(CCCc4cc(Cl)ccc43)COc3ccc(cc32)C(=O)NS(=O)(=O)N1` [Example 67, (1S,3′R,6′R,7′S,8′E,11′S)-6-chloro-11′-methyl-7′-(2-(4-morpholinyl)ethoxy)-3,4-dihydro-2H,15′H-spiro[naphthalene-1,22′-[20]oxa[13]thia[1,12,14]triazatetracyclo[14.7.2.0^3,6.0^19,24]pentacosa[8,16,18,24]tetraen]-15′-one 13′,13′-dioxide], the IC50 in assay [1] came out at 1.51 nM; in assay [2] it was 450 nM.

On to `COCCO[C@H]1/C=C/C[C@H](C)NS(=O)(=O)NC(=O)c2ccc3c(c2)N(C[C@@H]2CC[C@H]21)C[C@@]1(CCCc2cc(Cl)ccc21)CO3` [Example 68, (1S,3′R,6′R,7′S,8′E,11′S)-6-chloro-7′-(2-methoxyethoxy)-11′-methyl-3,4-dihydro-2H,15′H-spiro[naphthalene-1,22′-[20]oxa[13]thia[1,12,14]triazatetracyclo[14.7.2.0^3,6.0^19,24]pentacosa[8,16,18,24]tetraen]-15′-one 13′,13′-dioxide], for which the 50% inhibitory concentration (IC50) in assay [1] was found to be 0.359 nM; in assay [2] it was 248 nM.

Turning to `COC(=O)CCO[C@H]1/C=C/C[C@H](C)NS(=O)(=O)NC(=O)c2ccc3c(c2)N(C[C@@H]2CC[C@H]21)C[C@@]1(CCCc2cc(Cl)ccc21)CO3` [Example 70, methyl 3-(((1S,3′R,6′R,7′S,8′E,11′S)-6-chloro-11′-methyl-13′,13′-dioxido-15′-oxo-3,4-dihydro-2H-spiro [naphthalene-1,22′-[20]oxa[13]thia[1,12,14]triazatetracyclo[14.7.2.0^3,6.0^19,24]pentacosa[8,16,18,24]tetraen]-7′-yl)oxy)propanoate], the values for the IC50 in assay [1] and in assay [2] were 1.16 nM and 44.2 nM, respectively.

For `C[C@@H]1C/C=C/[C@H](O)[C@@H]2CC[C@H]2CN2C[C@@]3(CCCc4cc(Cl)ccc43)COc3ccc(cc32)C(=O)NS(=O)(=O)N1` [Example 71, (1S,3′R,6′R,7′S,8′E,11R)-6-chloro-7′-hydroxy-11′-methyl-3,4-dihydro-2H,15′H-spiro[naphthalene-1,22′-[20]oxa[13]thia[1,12,14]triazatetracyclo[14.7.2.0^3,6.0^19,24]pentacosa[8,16,18,24]tetraen]-15′-one 13′,13′-dioxide], the IC50 in assay [1] stood at 2.62 nM; in assay [2], 3160 nM.

`C[C@H]1C/C=C/[C@H](O)[C@@H]2CC[C@H]2CN2C[C@@]3(CCCc4cc(Cl)ccc43)COc3ccc(cc32)C(=O)NS(=O)(=O)N1CCN(C)C` [Example 76, (1S,3′R,6′R,7′S,8′E,11′S)-6-chloro-12′-(2-(dimethylamino)ethyl)-7′-hydroxy-11′-methyl-3,4-dihydro-2H,15′H-spiro[naphthalene-1,22′-[20]oxa[13]thia[1,12,14]triazatetracyclo[14.7.2.0^3,6.0^19,24]pentacosa[8,16,18,24]tetraen]-15′-one 13′,13′-dioxide]: the IC50 in assay [1] was found to be 0.405 nM; in assay [2] it was 146 nM.

As for `CO[C@H]1C[C@@H](N2[C@@H](C)C/C=C/[C@H](O)[C@@H]3CC[C@H]3CN3C[C@@]4(CCCc5cc(Cl)ccc54)COc4ccc(cc43)C(=O)NS2(=O)=O)C1` [Example 77, (1S,3′R,6′R,7′S,8′E,11′S)-6-chloro-7′-hydroxy-12′-(cis-3-methoxycyclobutyl)-11′-methyl-3,4-dihydro-2H,15′H-spiro[naphthalene-1,22′-[20]oxa[13]thia[1,12,14]triazatetracyclo[14.7.2.0^3,6.0^19,24]pentacosa[8,16,18,24]tetraen]-15′-one 13′,13′-dioxide], the values for the IC50 in assay [1] and in assay [2] were 0.593 nM and 442 nM, respectively.
